According to patent US20170251662A1, “ALTERNATIVE DEVICE AND METHODS FOR APPLICATION OF 1-METHYLCYCLOPROPENE TO FRUIT” (AGROFRESH INC., priority 2016, published 2017):

Experiments:
Format in all cases: in vivo
Bartlett pears = test: Liquid 1-MCP drench treatment on pears; parameters: key to Firmness, statistical significance between control and treated bins of pears by layers / Ethylene Content, statistical significance between control and treated bins of pears by layers / Skin Color, statistical significance between control and treated bins of pears by layers: Lx: layers that contained fruit that were not statistically significantly different from control; All: fruit tested in all layers was statistically significantly different from control; None: no layers were identified that had statistical significance from control
Protocol: Bins of freshly harvested Bartlett pears were sprayed with 0 gal (control), 1.0 gal, 2.0 gal, or 3.0 gal of Harvista AFxRD038 formulation. The AFxRD038 liquid 1-methylcyclopropene (1-MCP) formulation was made of 3 gal of water, 36 g of AFxRD038, 113 ml of HiSupreme Spray Oil, and 5.63 ml of Silwett L-77 surfactant.
A CO2 backpack sprayer was used to apply the different volumes of 1-MCP treatment within an initial time period of a few days (e.g., about 2-3 days). The formulation was applied to bins containing a total of approximately 900 lbs of pears. Each bin comprised 7-9 layers depending on the size of the pears, with layer 1 being the top layer and layers 7-9 being the bottom layer. A control bin having 9 layers of pears was not sprayed with 1-MCP treatment.
The bins of pears were allowed to air dry outside, and were then stored in regular cold air (i.e., about 4° C.) for a second time period of about two days. The fruit was then moved to a controlled atmosphere storage having a temperature of 31° F. for a third time period of about 45 days. Upon removal of the fruit from storage in the bins, the fruit was then placed in a warm room having a temperature of about 68° F. for a fourth time period of about six days.
On the sixth day of the fourth time period of warm room exposure, each individual bin of fruit was sampled in a uniform fashion. Uniform sampling was performed by removing about 250 pears from the top of each bin, layer-by-layer. Each layer of about 250 fruit was stored in plastic bins for further analysis during a fifth time period. Day 6 evaluation occurred on the same day the layers were removed from the bin. Four days later (Day 10), another series of fruit layers were analyzed. Four more days later (Day 14), the last set of fruit from the bins were analyzed.
On days 6, 10, and 14, a subset of fruit from each layer of each bin was analyzed for firmness, ethylene content, and fruit skin color. Quality measurements were taken on an individual layer of fruit within each treated bin to establish the effectiveness and consistency of the treatments from top to bottom of each fruit bin (see FIGS. 3-5). For example, firmness of the pears was measured by peeling the pears, and measuring the middle pulp with an 8 mm tip.

Red Delicious apples = test: Liquid 1-MCP drench treatment on apples; parameters: key to Ethylene Content, statistical significance between control and treated bins of apples by layers: Lx: layers that contained fruit that were not statistically significantly different from control; All: fruit tested in all layers was statistically significantly different from control; None: no layers were identified that had statistical significance from control; conditions: for Firmness of apples compared with unsprayed control apples: most apples
Protocol: This experiment was conducted to test the effect of 1-MCP treatment on Red Delicious apples. This experiment was performed exactly as detailed above in Example 1 for Bartlett pears, but with a few noted exceptions described here. Specifically, Red Delicious apples were treated with a 1-MCP treatment comprising 31 g of AFxRD038. The apples were treated with 0.5 gal, 1.0 gal, and 2.0 gal volumes of the 1-MCP treatment, which were applied to bins of apples comprised in 9-10 layers depending on the size of the apples. A control bin having 10 layers of apples was not sprayed with 1-MCP treatment. The apples were stored for a third time period at room temperature for 33 days. The apples were analyzed for firmness and ethylene content at warm day 7 and 14 of the fifth time period.

Cantaloupe melons [1] = test: Comparative liquid 1-MCP spray treatment on melons, stored about 15 days
Protocol: This experiment was conducted to test the effect of 1-MCP spray treatment on Cantaloupe melons as compared to SmartFresh treatment. Bins containing 9 kilograms each of freshly harvested Cantaloupe melons were sprayed four times using a dual-liquid sprayer comprising the Harvista AFx701 formulation (see FIG. 10). Each spray of the AFx701 liquid 1-methylcyclopropene (1-MCP) formulation comprised 83.5 mg of AFx701 and 608 mg of water. Thus, a total amount of 1.67 mg of 1-MCP active ingredient and 2.43 g of water was applied to each bin of melons, which equates to 0.185 mg of 1-MCP per kg of melons. The 1-MCP treatment formulations were prepared and applied to […] using a sprayer, and compared to apples that had been treated with SmartFresh or no 1-MCP at all (control).
(§1) The bins of melons were allowed to air dry outside, and were then stored in regular cold air (i.e., about 36° F.) for a second time period of about 15 days. The melons were then moved to a regular atmosphere storage having a temperature of about 70° F. for a third time period of about 2, 4, or 6 more days. Upon removal of the fruit from storage in the bins, the fruit were then analyzed for firmness. Firmness of the melons was measured by cutting the melons in half, and measuring the middle pulp with an 8 mm tip.
Day 15 evaluation occurred on the same day the fruit were removed from storage in the bin. Two days later (Day 15+2), another series of fruit were analyzed. Two more days later (Day 15+4), an additional set of fruit were removed and analyzed. Finally, the last set of fruit from the bins was analyzed two days later (Day 15+6). Quality measurements were taken on individual melons randomly selected from different treated bins and different positions within each treated bin (e.g., the edge and/or the center of the bin) to establish the effectiveness and consistency of the treatments (see FIG. 11).

Cantaloupe melons [2] = test: Comparative liquid 1-MCP spray treatment on melons, stored about 9 days
Protocol: as §1, with “This experiment was conducted to test the effect of 1-MCP spray treatment on Cantaloupe melons as compared to SmartFresh treatment. This experiment was performed exactly as detailed above in Example 1 for Bartlett pears, but with a few noted exceptions described here. The bins” for “The bins”, “of about 9 days. The” for “of about 15 days. The”

Golden Delicious apples = test: Comparative analysis of 1-MCP treatments of apples applied with the wand device; conditions: for Fruit firmness of apples relative to SmartFresh and control apples: 65 days at about 1° C. + 7 days room temperature
Protocol: This experiment was conducted to test the effect of different application methods of 1-MCP treatment (i.e., Harvista AFx701) on Golden Delicious apples in bins. Apples were treated with two different formulations of the 1-MCP treatment, including a formulation comprising 1) 20 grams of 1-MCP and 2 liters of water, which was applied in 10 seconds and 2) 60 grams of 1-MCP and 6 liters of water, which was applied in 30 seconds. The 1-MCP treatment formulations were prepared and applied to apples using the wand device, and compared to apples that had been treated with SmartFresh or no 1-MCP at all (control).
Apples were stored for 65 days in cold air at about 1° C. temperature, prior to being stressed for 7 days at room temperature. Replicates of 25 fruit were sampled from each layer of each fruit bin to analyze fruit firmness (in pounds, lbs) and internal ethylene concentration (ppm). Data were analyzed on a whole bin basis using all replicates from each layer.

[3] = spray, 9 days cold storage, all days
[4] = Treatment 2: 60 grams of 1-MCP and 6 liters of water, 30 seconds, wand device

CC1=CC1 [1-MCP, 1-Methylcyclopropene]
Firmness of pears compared with unsprayed control fruit (Bartlett pears; 1 gal, 2 gal or 3 gal, layers 1-9, warm days 6, 10 and 14): significantly better firmness
Firmness, statistical significance between control and treated bins of pears by layers (Bartlett pears; WRD 6, 1 Gal): All
Skin Color, statistical significance between control and treated bins of pears by layers (Bartlett pears; WRD 6, 1 Gal): All
Firmness, statistical significance between control and treated bins of pears by layers (Bartlett pears; WRD 6, 2 Gal): All
Skin Color, statistical significance between control and treated bins of pears by layers (Bartlett pears; WRD 6, 2 Gal): All
Firmness, statistical significance between control and treated bins of pears by layers (Bartlett pears; WRD 6, 3 Gal): All
Skin Color, statistical significance between control and treated bins of pears by layers (Bartlett pears; WRD 6, 3 Gal): All
Ethylene Content, statistical significance between control and treated bins of pears by layers (Bartlett pears; WRD 10, 1 Gal): All
Firmness, statistical significance between control and treated bins of pears by layers (Bartlett pears; WRD 10, 1 Gal): All
Skin Color, statistical significance between control and treated bins of pears by layers (Bartlett pears; WRD 10, 1 Gal): All
Firmness, statistical significance between control and treated bins of pears by layers (Bartlett pears; WRD 10, 2 Gal): All
Skin Color, statistical significance between control and treated bins of pears by layers (Bartlett pears; WRD 10, 2 Gal): All
Firmness, statistical significance between control and treated bins of pears by layers (Bartlett pears; WRD 10, 3 Gal): All
Skin Color, statistical significance between control and treated bins of pears by layers (Bartlett pears; WRD 10, 3 Gal): All
Firmness, statistical significance between control and treated bins of pears by layers (Bartlett pears; WRD 14, 1 Gal): All
Skin Color, statistical significance between control and treated bins of pears by layers (Bartlett pears; WRD 14, 1 Gal): None
Firmness, statistical significance between control and treated bins of pears by layers (Bartlett pears; WRD 14, 2 Gal): All
Skin Color, statistical significance between control and treated bins of pears by layers (Bartlett pears; WRD 14, 2 Gal): None
Firmness, statistical significance between control and treated bins of pears by layers (Bartlett pears; WRD 14, 3 Gal): All
Skin Color, statistical significance between control and treated bins of pears by layers (Bartlett pears; WRD 14, 3 Gal): None
Control and/or inhibition of fruit ripening in pears (Bartlett pears; as little as 1 gal of 1-MCP treatment): effective to control and/or inhibit fruit ripening in pears
Fruit color of pears compared with unsprayed control fruit (Bartlett pears; layers 1-9, days 6 and 10): significantly less fruit color
Ethylene concentration of pears compared with unsprayed control fruit (Bartlett pears; layers 1-9, warm days 6, 10 and 14): significantly lower ethylene concentrations
Fruit skin color of pears compared with control (Bartlett pears; warm day 14): none of the layers showed a significant difference
Ethylene Content, statistical significance between control and treated bins of apples by layers (Red Delicious apples; WRD 7, 0.5 Gal): All
Ethylene Content, statistical significance between control and treated bins of apples by layers (Red Delicious apples; WRD 7, 1 Gal): All
Ethylene Content, statistical significance between control and treated bins of apples by layers (Red Delicious apples; WRD 7, 2 Gal): All
Ethylene Content, statistical significance between control and treated bins of apples by layers (Red Delicious apples; WRD 14, 2 Gal): All
Control and/or inhibition of fruit ripening in apples (Red Delicious apples; as little as 0.5 gal of 1-MCP treatment): effective to control and/or inhibit fruit ripening in apples
Firmness of apples compared with unsprayed control apples (Red Delicious apples; day 14, except layers 2, 5, 8 and 10): significantly better firmness
Ethylene concentration of apples compared with unsprayed control apples (Red Delicious apples; warm day 7, layers 1-10): significantly lower ethylene concentrations
Firmness of apples compared with unsprayed control apples (Red Delicious apples; warm day 7, except layers 5, 8 and 9): significantly better firmness
Control and/or inhibition of fruit ripening in melons (Cantaloupe melons [1]; 15 days cold storage): effective to control and/or inhibit fruit ripening in melons
Firmness of melons compared with control fruit (Cantaloupe melons [1]; Day 15, 15+2, 15+4, 15+6 (all days)): significant differences from the control fruit
Firmness of melons compared with SmartFresh-treated melons (Cantaloupe melons [1]; all days): relatively comparable to melons treated with SmartFresh
Firmness of melons compared with SmartFresh-treated melons (Cantaloupe melons [2]; Day 9+4): even higher
Control and/or inhibition of fruit ripening in melons (Cantaloupe melons [2]; spray, 9 days cold storage): effective to control and/or inhibit fruit ripening in melons
Firmness of melons compared with SmartFresh-treated fruit (Cantaloupe melons [2]; [3]): statistically the same as SmartFresh treated fruit
Firmness of melons compared with control (Cantaloupe melons [2]; [3]): significant differences from the control
Control and/or inhibition of fruit ripening in apples (Golden Delicious apples; 1-MCP treatment applied with a wand device): effective to control and/or inhibit fruit ripening in apples
Fruit firmness of apples relative to SmartFresh and control apples (Golden Delicious apples; Treatment 1: 20 grams of 1-MCP and 2 liters of water, 10 seconds, wand device): highest
Internal ethylene concentration of apples compared with Treatment 1 or control (Golden Delicious apples; [4]): significantly less ethylene concentration
Fruit firmness of apples relative to SmartFresh and control apples (Golden Delicious apples; [4]): highest
